Laboratory results from patent publication US10988459B2 (priority 2015, dated 2021).
pKi: −log10 of the molar value.

molecular target: human RIP1 kinase domain (2-375) (Homo sapiens (Human), UniProt Q13546); assay: biochemical; assay type: biochemical; conditions: tight-binding apparent inhibition constant; human RIP1 kinase domain (2-375) 50 nM, 50 uM ATP, 2 hours; read-out: Ki
Summary of the method: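 50 nM purified kinase domain from baculovirus-infected insect cells, incubated 2 h with compound in 50 mM Hepes pH 7.5, 30 mM MgCl2, 1 mM DTT, 50 uM ATP, 0.002% Brij-35, 0.5% DMSO. ADP formation read by Transcreener FP at 633 nm excitation. Ki^app fitted with the Morrison tight-binding equation.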

human RIP1 kinase domain (2-375), sequence (Q13546 2-375): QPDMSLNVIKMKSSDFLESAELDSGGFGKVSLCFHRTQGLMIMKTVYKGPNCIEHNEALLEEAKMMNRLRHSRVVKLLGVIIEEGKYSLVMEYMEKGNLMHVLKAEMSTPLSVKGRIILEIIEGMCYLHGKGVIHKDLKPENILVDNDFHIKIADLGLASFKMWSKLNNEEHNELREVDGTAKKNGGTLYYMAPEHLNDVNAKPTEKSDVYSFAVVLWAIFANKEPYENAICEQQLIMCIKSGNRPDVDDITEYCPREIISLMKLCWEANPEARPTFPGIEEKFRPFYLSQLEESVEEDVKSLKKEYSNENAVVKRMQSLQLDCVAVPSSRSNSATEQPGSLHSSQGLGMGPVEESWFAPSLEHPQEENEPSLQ

Row | pKi | Structure (SMILES)
1 | 8.51 | O=C(N[C@H]1COc2cc(F)cc(F)c2NC1=O)c1nc2n(n1)[C@@H](c1ccccc1)CC2 [Example 621, (5R)-5-phenyl-N-[(3S)-6,8-difluoro-4-oxo-3,5-dihydro-2H-1,5-benzoxazepin-3-yl]-6,7-dihydro-5H-pyrrolo[1,2-b][1,2,4]triazole-2-carboxamide]
2 | 8.30 | O=C(N[C@H]1CCc2cc(F)cc(F)c2NC1=O)c1nc2n(n1)[C@@H](c1ccccc1)CC2 [Example 622, (5R)-5-phenyl-N-[(3S)-7,9-difluoro-2-oxo-1,3,4,5-tetrahydro-1-benzazepin-3-yl]-6,7-dihydro-5H-pyrrolo[1,2-b][1,2,4]triazole-2-carboxamide]
3 | 8.47 | CN1C(=O)[C@@H](NC(=O)c2nc3n(n2)[C@@H](c2ccccc2)CC3)COc2ccccc21 [Example 623, (5R)-5-phenyl-N-[(3S)-5-methyl-4-oxo-2,3-dihydro-1,5-benzoxazepin-3-yl]-6,7-dihydro-5H-pyrrolo[1,2-b][1,2,4]triazole-2-carboxamide]
4 | 7.85 | CN1C(=O)[C@@H](NC(=O)c2nc3n(n2)CCO[C@@H]3c2ccccc2F)COc2ccccc21 [Example 629, (8R)-8-(2-fluorophenyl)-N-[(3S)-5-methyl-4-oxo-2,3-dihydro-1,5-benzoxazepin-3-yl]-6,8-dihydro-5H-[1,2,4]triazolo[5,1-c][1,4]oxazine-2-carboxamide]
5 | 7.52 | O=C(N[C@H]1CCc2cc(F)cc(F)c2NC1=O)c1nc2n(n1)CCO[C@H]2c1ccccc1F [Example 630, (8S)-8-(2-fluorophenyl)-N-[(3S)-7,9-difluoro-2-oxo-1,3,4,5-tetrahydro-1-benzazepin-3-yl]-6,8-dihydro-5H-[1,2,4]triazolo[5,1-c][1,4]oxazine-2-carboxamide]
6 | 6.80 | CN1C(=O)[C@@H](NC(=O)c2ncc3cnn(-c4ccccn4)c3n2)COc2ccccc21 [Example 631, 1-(2-pyridyl)-N-[(3S)-5-methyl-4-oxo-2,3-dihydro-1,5-benzoxazepin-3-yl]pyrazolo[3,4-d]pyrimidine-6-carboxamide]
7 | 5.51 | Cc1cc2n(n1)CC[C@H](NC(=O)c1ncc3cnn(-c4ccccn4)c3n1)C(=O)N2C [Example 632, 1-(2-pyridyl)-N-[(6S)-2,4-dimethyl-5-oxo-7,8-dihydro-6H-pyrazolo[1,5-a][1,3]diazepin-6-yl]pyrazolo[3,4-d]pyrimidine-6-carboxamide]
8 | 5.42 | Cc1cc2n(n1)CC[C@@H](NC(=O)c1ncc3cnn(-c4ccccn4)c3n1)C(=O)N2C [Example 633, 1-(2-pyridyl)-N-[(6R)-2,4-dimethyl-5-oxo-7,8-dihydro-6H-pyrazolo[1,5-a][1,3]diazepin-6-yl]pyrazolo[3,4-d]pyrimidine-6-carboxamide]
9 | 6.62 | CN1C(=O)[C@@H](NC(=O)c2nc3n(n2)CCC32CCOCC2)COc2ccccc21 [Example 634, N-[(3S)-5-methyl-4-oxo-2,3-dihydro-1,5-benzoxazepin-3-yl]spiro[5,6-dihydropyrrolo[1,2-b][1,2,4]triazole-7,4′-tetrahydropyran]-2-carboxamide]
10 | 5.14 | Cc1cc2n(n1)CC[C@H](NC(=O)c1nc3n(n1)CCC31CCOCC1)C(=O)N2C [Example 635, N-[(6S)-2,4-dimethyl-5-oxo-7,8-dihydro-6H-pyrazolo[1,5-a][1,3]diazepin-6-yl]spiro[5,6-dihydropyrrolo[1,2-b][1,2,4]triazole-7,4′-tetrahydropyran]-2-carboxamide]
11 | 6.89 | Cc1cc2n(n1)CC[C@H](NC(=O)c1nc3n(n1)CCN3c1ccccc1)C(=O)N2C [Example 636, 4-phenyl-N-[(6S)-2,4-dimethyl-5-oxo-7,8-dihydro-6H-pyrazolo[1,5-a][1,3]diazepin-6-yl]-5,6-dihydroimidazo[1,2-b][1,2,4]triazole-2-carboxamide]
12 | 7.74 | O=C(N[C@H]1CCc2cc(F)cc(F)c2NC1=O)c1ncc2c(n1)C1(CCCC1)OC2 [Example 637, N-[(3S)-7,9-difluoro-2-oxo-1,3,4,5-tetrahydro-1-benzazepin-3-yl]spiro[5H-furo[3,4-d]pyrimidine-7,1′-cyclopentane]-2-carboxamide]
13 | 7.42 | O=C(N[C@H]1CCc2cc(F)cc(F)c2NC1=O)c1nc2n(n1)CCO[C@H]2c1ccccc1 [Example 638, (8S)-8-phenyl-N-[(3S)-7,9-difluoro-2-oxo-1,3,4,5-tetrahydro-1-benzazepin-3-yl]-6,8-dihydro-5H-[1,2,4]triazolo[5,1-c][1,4]oxazine-2-carboxamide]
14 | 6.38 | O=C(N[C@H]1CCc2cc(F)cc(F)c2NC1=O)c1nc2n(n1)CCO[C@@H]2c1ccccc1 [Example 639, (8R)-8-phenyl-N-[(3S)-7,9-difluoro-2-oxo-1,3,4,5-tetrahydro-1-benzazepin-3-yl]-6,8-dihydro-5H-[1,2,4]triazolo[5,1-c][1,4]oxazine-2-carboxamide]
15 | 8.03 | O=C(N[C@H]1COc2cc(F)cc(F)c2NC1=O)c1nc2n(n1)CCO[C@H]2c1ccccc1 [Example 640, (8S)-8-phenyl-N-[(3S)-6,8-difluoro-4-oxo-3,5-dihydro-2H-1,5-benzoxazepin-3-yl]-6,8-dihydro-5H-[1,2,4]triazolo[5,1-c][1,4]oxazine-2-carboxamide]
16 | 6.33 | O=C(N[C@H]1COc2cc(F)cc(F)c2NC1=O)c1nc2n(n1)CCO[C@@H]2c1ccccc1 [Example 641, (8R)-8-phenyl-N-[(3S)-6,8-difluoro-4-oxo-3,5-dihydro-2H-1,5-benzoxazepin-3-yl]-6,8-dihydro-5H-[1,2,4]triazolo[5,1-c][1,4]oxazine-2-carboxamide]

Row | pKi | Structure (SMILES)
17 | 7.92 | Cc1cc(F)c2c(c1)OC[C@H](NC(=O)c1nc3n(n1)CCO[C@H]3c1ccccc1)C(=O)N2 [Example 642, (8S)-8-phenyl-N-[(3S)-6-fluoro-8-methyl-4-oxo-3,5-dihydro-2H-1,5-benzoxazepin-3-yl]-6,8-dihydro-5H-[1,2,4]triazolo[5,1-c][1,4]oxazine-2-carboxamide]
18 | 6.44 | Cc1cc(F)c2c(c1)OC[C@H](NC(=O)c1nc3n(n1)CCO[C@@H]3c1ccccc1)C(=O)N2 [Example 643, (8R)-8-phenyl-N-[(3S)-6-fluoro-8-methyl-4-oxo-3,5-dihydro-2H-1,5-benzoxazepin-3-yl]-6,8-dihydro-5H-[1,2,4]triazolo[5,1-c][1,4]oxazine-2-carboxamide]
19 | 6.51 | Cc1cc2n(n1)CC[C@H](NC(=O)c1ncn(Cc3ncccc3C)n1)C(=O)N2C [Example 644, 1-[(3-methyl-2-pyridyl)methyl]-N-(6S)-2,4-dimethyl-5-oxo-7,8-dihydro-6H-pyrazolo[1,5-a][1,3]diazepin-6-yl-1,2,4-triazole-3-carboxamide]
20 | 5.92 | CN1C(=O)[C@@H](NC(=O)c2nc3n(n2)CCC32CCOC2)COc2ccccc21 (stereo partly drawn) [Example 645, N-[(3S)-5-methyl-4-oxo-2,3-dihydro-1,5-benzoxazepin-3-yl]spiro[5,6-dihydropyrrolo[1,2-b][1,2,4]triazole-7,3′-tetrahydrofuran]-2-carboxamide]
21 | 5.03 | Cc1cc2n(n1)CC[C@H](NC(=O)c1nc3n(n1)CCC31CCOC1)C(=O)N2C (stereo partly drawn) [Example 646, N-[(6S)-2,4-dimethyl-5-oxo-7,8-dihydro-6H-pyrazolo[1,5-a][1,3]diazepin-6-yl]spiro[5,6-dihydropyrrolo[1,2-b][1,2,4]triazole-7,3′-tetrahydrofuran]-2-carboxamide]
22 | 6.80 | Cc1cccnc1Cn1cnc(C(=O)N[C@H]2CCn3nccc3N(C)C2=O)n1 [Example 647, 1-[(3-methyl-2-pyridyl)methyl]-N-(6S)-4-methyl-5-oxo-7,8-dihydro-6H-pyrazolo[1,5-a][1,3]diazepin-6-yl-1,2,4-triazole-3-carboxamide]
23 | 6.55 | Cc1cccnc1Cn1cnc(C(=O)N[C@H]2CCn3nc(C4CC4)cc3N(C)C2=O)n1 [Example 648]
24 | 6.85 | Cc1cc2n(n1)CC[C@H](NC(=O)c1nc3n(n1)CCN3c1c(F)cccc1F)C(=O)N2C [Example 649, 4-(2,6-difluorophenyl)-N-[(6S)-2,4-dimethyl-5-oxo-7,8-dihydro-6H-pyrazolo[1,5-a][1,3]diazepin-6-yl]-5,6-dihydroimidazo[1,2-b][1,2,4]triazole-2-carboxamide]
25 | 6.72 | CN1C(=O)[C@@H](NC(=O)c2ncn(Cc3ccccn3)n2)CCn2nccc21 [Example 650, 1-(2-pyridylmethyl)-N-(6S)-4-methyl-5-oxo-7,8-dihydro-6H-pyrazolo[1,5-a][1,3]diazepin-6-yl-1,2,4-triazole-3-carboxamide]
26 | 6.54 | Cc1cc2n(n1)CC[C@H](NC(=O)c1ncn(Cc3ccccn3)n1)C(=O)N2C [Example 651, 1-(2-pyridylmethyl)-N-(6S)-2,4-dimethyl-5-oxo-7,8-dihydro-6H-pyrazolo[1,5-a][1,3]diazepin-6-yl-1,2,4-triazole-3-carboxamide]
27 | 6.72 | CN1C(=O)[C@@H](NC(=O)c2ncn(Cc3ccccn3)n2)CCn2nc(C3CC3)cc21 [Example 652]
28 | 6.96 | CN1C(=O)[C@@H](NC(=O)c2ncn(Cc3ncccc3F)n2)CCn2nccc21 [Example 653, 1-[(3-fluoro-2-pyridyl)methyl]-N-(6S)-4-methyl-5-oxo-7,8-dihydro-6H-pyrazolo[1,5-a][1,3]diazepin-6-yl-1,2,4-triazole-3-carboxamide]
29 | 6.96 | Cc1cc2n(n1)CC[C@H](NC(=O)c1ncn(Cc3ncccc3F)n1)C(=O)N2C [Example 654, 1-[(3-fluoro-2-pyridyl)methyl]-N-(6S)-2,4-dimethyl-5-oxo-7,8-dihydro-6H-pyrazolo[1,5-a][1,3]diazepin-6-yl-1,2,4-triazole-3-carboxamide]
30 | 6.85 | CN1C(=O)[C@@H](NC(=O)c2ncn(Cc3ncccc3F)n2)CCn2nc(C3CC3)cc21 [Example 655]
31 | 7.13 | Cc1cc2n(n1)CC[C@H](NC(=O)c1ncn(Cc3ncccc3Cl)n1)C(=O)N2C [Example 657, 1-[(3-chloro-2-pyridyl)methyl]-N-(6S)-2,4-dimethyl-5-oxo-7,8-dihydro-6H-pyrazolo[1,5-a][1,3]diazepin-6-yl-1,2,4-triazole-3-carboxamide]
